According to PubChem BioAssay (NCI):
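Where inhibition never reached the appropriate level, the endpoint shown equals the highest concentration tested. Otherwise, values were interpolated linearly from a five-concentration, 48-hour dose response in 96-well plates. TGI: total growth inhibition.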

Columns and labels:
Experiment in all cases: inhibition of tumour cell growth, NCI panel, 48 h
HOP-92 NSCLC = test system: HOP-92 NSCLC
DMS 114 small cell lung = test system: DMS 114 small cell lung
DLD-1 colon = test system: DLD-1 colon
NCI-H460 lung = test system: NCI-H460 lung
M19-MEL melanoma = test system: M19-MEL melanoma
HOP-18 NSCLC = test system: HOP-18 NSCLC
LXFL 529 NSCLC = test system: LXFL 529 NSCLC
HT29 colon = test system: HT29 colon
DMS 273 small cell lung = test system: DMS 273 small cell lung
SNB-78 CNS = test system: SNB-78 CNS
SF-295 CNS = test system: SF-295 CNS
HCC-2998 colon = test system: HCC-2998 colon
KM20L2 colon = test system: KM20L2 colon
BT-549 breast = test system: BT-549 breast
DU-145 prostate = test system: DU-145 prostate
T-47D breast = test system: T-47D breast
MDA-MB-231 breast = test system: MDA-MB-231 breast
MDA-MB-435 = test system: MDA-MB-435
NCI/ADR-RES ovarian = test system: NCI/ADR-RES ovarian
PC-3 prostate = test system: PC-3 prostate

Compound	TGI (HOP-92 NSCLC) [µM]	TGI (DMS 114 small cell lung) [µM]	TGI (DLD-1 colon) [µM]	TGI (NCI-H460 lung) [µM]	TGI (M19-MEL melanoma) [µM]	TGI (HOP-18 NSCLC) [µM]	TGI (LXFL 529 NSCLC) [µM]	TGI (HT29 colon) [µM]	TGI (DMS 273 small cell lung) [µM]	TGI (SNB-78 CNS) [µM]	TGI (SF-295 CNS) [µM]	TGI (HCC-2998 colon) [µM]	TGI (KM20L2 colon) [µM]	TGI (BT-549 breast) [µM]	TGI (DU-145 prostate) [µM]	TGI (T-47D breast) [µM]	TGI (MDA-MB-231 breast) [µM]	TGI (MDA-MB-435) [µM]	TGI (NCI/ADR-RES ovarian) [µM]	TGI (PC-3 prostate) [µM]
Nc1ccccc1Sc1ccc(Cl)cc1	41.1	59.3	> 100	68.9	60.7	> 100	> 100	36.3	72.5	46.6	> 100	> 100	42.9	–	–	–	–	–	–	–
COc1cccc(NC(=O)N/C(=C/c2ccc(N(CCC#N)CCC#N)cc2)NC(=O)c2cc([N+](=O)[O-])ccc2Cl)c1	> 100	> 100	> 100	–	> 100	> 100	> 100	–	> 100	> 100	> 100	–	> 100	–	–	–	–	–	–	–
Cc1cc(S(N)(=O)=O)c(S/C(=N\Nc2ccc([N+](=O)[O-])cc2)c2ccc(Cl)cc2)cc1Cl	5.4	–	–	5.3	–	–	–	4.36	–	–	5.46	–	–	35.4	5.51	> 100	8.27	6.88	–	–
C/C(=C1/N=C(c2cc([N+](=O)[O-])ccc2Cl)N(C2=CC=C(Cl)CC2)C1=O)c1cc2ccccc2oc1=O	–	> 100	> 100	> 100	> 100	> 100	> 100	> 100	–	> 100	> 100	> 100	> 100	–	–	–	–	–	–	–
C=CCN1C(=O)/C(=C/c2cccs2)N=C1SC1OC(COC(=O)c2ccccc2)C(OC(=O)c2ccccc2)C1OC(=O)c1ccccc1 (centres undefined)	> 100	–	–	> 100	–	–	–	–	–	–	> 100	> 100	–	> 100	> 100	–	> 100	> 100	> 100	> 100
C=C1C(C[C@@H]2O[C@H]3C[C@H]4O[C@@]5(C[C@@H]6O[C@]7(C[C@H](C)[C@@H]8O[C@@H]9CC(C(O)CO)O[C@@H]9C[C@@H]8O7)C[C@H](C)[C@@H]6O5)C[C@H]4O[C@H]3[C@H](C)[C@H]2O)O[C@@H](CC[C@@H]2O[C@@H](CC[C@@]34CC5O[C@H]6C(O[C@H]7CC[C@H](CC(=O)OC)O[C@@H]7[C@@H]6O3)[C@H]5O4)CC2=C)C[C@H]1C (some centres undefined)	> 1	–	–	–	–	–	–	–	–	–	–	–	–	0.00316	–	> 1	–	0.000183	0.0772	> 1
O=C(COC(=O)c1ccccc1)c1ccc(Br)cc1	30.5	–	–	37.2	–	–	–	46.3	–	–	32	26.9	–	21.1	64.6	62.6	30.5	20.4	61.9	38.7
O=S(=O)(O)c1ccc(N=Nc2ccc(N=Nc3ccc(/C=C/c4ccc(N=[N+]([O-])c5ccc(/C=C/c6ccc(N=Nc7ccc(N=Nc8ccc(S(=O)(=O)O)cc8)c8ccccc78)cc6S(=O)(=O)O)c(S(=O)(=O)O)c5)cc4S(=O)(=O)O)c(S(=O)(=O)O)c3)c3ccccc23)cc1	> 100	> 100	> 100	> 100	> 100	> 100	–	> 100	> 100	> 100	> 100	> 100	> 100	–	–	–	–	–	> 100	–
